In patent US5239082A, “Sulfonamide tetrazole ACAT inhibitors” (Warner-Lambert Company, priority 1992, dated 1993):

Assays:
[1] = in vivo screen designated APCC, rats on high fat, high cholesterol diet with 0.5% cholic acid, blood cholesterol; parameters: species or system male Sprague-Dawley rats; details: Rattus norvegicus, 16 h, dosed at 4 PM in CMC/Tween, sacrificed at 8 AM, high cholesterol diet overnight, read-out: APCC (% ΔTC)
Excerpt: In one in vivo screen designated APCC, male Sprague-Dawley rats (200 to 225 g) were randomly divided into treatment groups and dosed at 4 PM with either vehicle (CMC/Tween) or suspensions of compounds in vehicle. The normal chow diet was then replaced with a high fat, high cholesterol diet with 0.5% cholic acid. The rats consumed this diet ad libitum during the night and were sacrificed at 8 AM to obtain blood samples for cholesterol analysis using standard procedures. Statistical differences between mean cholesterol values for the same vehicle were determined using analysis of variance followed by Fisher's least significant test. The results of this trial for representative compounds of the present invention also appear in Table 1.

[2] = target: T1, acyl-CoA: cholesterol acyltransferase (ACAT) (Oryctolagus cuniculus, UniProt G1SFD9); test: in vitro ACAT inhibition test (IAI), radiolabeled cholesterol oleate formed from radiolabeled oleic acid in rabbit intestinal microsomes; type: biochemical; details: inhibition of acylation of cholesterol by oleic acid
T1 construct: tissue preparation containing rabbit intestinal microsomes; from tissue; host or cells: rabbit intestinal microsomes
T1 sequence (G1SFD9 1-524): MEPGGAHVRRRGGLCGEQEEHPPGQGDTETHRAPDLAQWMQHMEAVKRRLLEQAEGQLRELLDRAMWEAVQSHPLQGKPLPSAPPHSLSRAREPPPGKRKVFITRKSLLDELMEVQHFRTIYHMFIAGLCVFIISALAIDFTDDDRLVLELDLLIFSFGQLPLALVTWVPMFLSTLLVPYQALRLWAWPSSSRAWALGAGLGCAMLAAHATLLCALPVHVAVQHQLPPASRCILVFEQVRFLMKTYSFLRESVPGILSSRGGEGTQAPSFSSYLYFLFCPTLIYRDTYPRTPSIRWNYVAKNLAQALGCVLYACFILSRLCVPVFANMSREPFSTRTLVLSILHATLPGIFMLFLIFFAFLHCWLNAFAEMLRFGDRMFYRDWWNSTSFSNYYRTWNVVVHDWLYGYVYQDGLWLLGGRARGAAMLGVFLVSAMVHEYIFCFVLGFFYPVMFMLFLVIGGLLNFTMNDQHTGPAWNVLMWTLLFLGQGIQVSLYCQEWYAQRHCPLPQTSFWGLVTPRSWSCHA
Procedure: The ability of representative compounds of the present invention to inhibit ACAT was measured using an in vitro test more fully described in Field FJ, Salone RG. Biochemica et Biophysica 1982;712:557-70. The test assesses the ability of a test compound to inhibit the acylation of cholesterol by oleic acid by measuring the amount of radiolabeled cholesterol oleate formed from radiolabeled oleic acid in a tissue preparation containing rabbit intestinal microsomes.
The data appear in Table 1 where they are expressed as IC50 values; i.e., the concentration of test compound required to inhibit the activity of the enzyme by 50%.

IC50 [2] [nM] | Compound | change in vivo at 30 mg/kg [1] [%]
180 | CCCCCCCCCCCCn1nnc(CS(=O)(=O)Nc2c(OC)cc(OC)cc2OC)n1 [Example 7, N-(2,4,6-trimethoxyphenyl)-2-dodecyl-2H-tetrazole-5-methanesulfonamide] | -60
3700 | CCCCCCCCCCCCn1nnnc1CS(=O)(=O)Nc1c(OC)cc(OC)cc1OC [Example 8, N-(2,4,6-trimethoxyphenyl)-1-dodecyl-1H-tetrazole-5-methanesulfonamide] | -30
40 | CCCCCCCCCCCCn1nnc(C(C)(C)S(=O)(=O)Nc2c(C(C)C)cccc2C(C)C)n1 [Example 9, N-[2,6-Bis(1-methylethyl)phenyl]-2-dodecyl-α,α-dimethyl-2H-tetrazole-5-methanesulfonamide] | -53

The remaining lines, values behind:

Compound | IC50 [2] [nM] | change in vivo at 30 mg/kg [1] [%]
CCCCCCCCCCCCn1nnc(CS(=O)(=O)Nc2c(C(C)C)cccc2C(C)C)n1 [Example 1, N-[2,6-Bis(1-methylethyl)phenyl]-2-dodecyl-2H-tetrazole-5-methanesulfonamide] | 222 | -61
CCCCCCCCCCCCCCCCn1nnc(CS(=O)(=O)Nc2c(C(C)C)cccc2C(C)C)n1 [Example 2, N-[2,6-bis(1-methylethyl)phenyl]-2-hexadecyl-2H-tetrazole-5-methanesulfonamide] | 600 | -20
CCCCCCCCCCCCCCn1nnc(CS(=O)(=O)Nc2c(C(C)C)cccc2C(C)C)n1 [Example 3, N-[2,6-bis(1-methylethyl)phenyl]-2-tetradecyl-2H-tetrazole-5-methanesulfonamide] | 150 | -42
CCCCCCCCn1nnc(CS(=O)(=O)Nc2c(C(C)C)cccc2C(C)C)n1 [Example 4, N-[2,6-bis(1-methylethyl)phenyl]-2-octyl-2H-tetrazole-5-methanesulfonamide] | 750 | -14
CCCCCCCCCCCCCCCCCCn1nnc(CS(=O)(=O)Nc2c(C(C)C)cccc2C(C)C)n1 [Example 5, N-[2,6-bis(1-methylethyl)phenyl]-2-octadecyl-2H-tetrazole-5-methanesulfonamide] | 7600 | -31
CCCCCCCCCCCCn1nnnc1CS(=O)(=O)Nc1c(C(C)C)cccc1C(C)C [Example 6, N-[2,6-bis(1-methylethyl)phenyl]-1-dodecyl-1H-tetrazole-5-methanesulfonamide] | 1200 | -41
